Target: T1, mAChR hM4 (Homo sapiens, UniProt P08173)
T1 construct: expressed in transfected cells; host or cells: CHO-K1 (Chinese hamster ovary) cells
T1 sequence (P08173 1-479): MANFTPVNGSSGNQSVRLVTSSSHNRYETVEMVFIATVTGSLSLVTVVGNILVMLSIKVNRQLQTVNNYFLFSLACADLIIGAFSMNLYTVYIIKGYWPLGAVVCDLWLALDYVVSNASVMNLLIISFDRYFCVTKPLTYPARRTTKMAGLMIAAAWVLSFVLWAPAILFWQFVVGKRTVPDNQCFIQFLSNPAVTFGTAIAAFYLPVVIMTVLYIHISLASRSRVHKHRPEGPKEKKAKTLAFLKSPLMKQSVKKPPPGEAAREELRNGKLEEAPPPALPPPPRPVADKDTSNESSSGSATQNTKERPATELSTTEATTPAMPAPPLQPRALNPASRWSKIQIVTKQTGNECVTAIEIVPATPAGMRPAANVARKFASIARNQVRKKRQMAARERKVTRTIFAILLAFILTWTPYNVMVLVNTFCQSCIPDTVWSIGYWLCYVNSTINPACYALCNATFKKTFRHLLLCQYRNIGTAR
Assay: mAChR M4 cell-based functional assay (calcium flux, potentiation of EC20 acetylcholine response)
Conditions: mAChR hM4 cell-line; for EC50: >10,000 estimated for low potency compounds lacking a plateau
Source text: In one aspect, the disclosed compounds potentiate the agonist response (e.g., acetylcholine) of mAChR M4. In a further aspect, the disclosed compounds increase mAChR M4 response to non-maximal concentrations of agonist in the presence of compound compared to the response to agonist in the absence of compound. […] For example, activation of mAChR M4 activity can be determined by measurement of calcium flux in response to agonist, e.g. acetylcholine, in cells loaded with a Ca^2+-sensitive fluorescent dye (e.g., Fluo-4). In a further aspect, the calcium flux was measured as an increase in fluorescent static ratio. In a yet further aspect, positive allosteric modulator activity was analyzed as a concentration-dependent increase in the EC20 acetylcholine response (i.e. the response of mAChR M4 at a concentration of acetylcholine that yields 20% of the maximal response).
In one aspect, the disclosed compounds activate mAChR M4 response as an increase in calcium fluorescence in mAChR M4-transfected CHO-K1 cells in the presence of the compound, compared to the response of equivalent CHO-K1 cells in the absence of the compound. […] In a further aspect, the mAChR M4-transfected CHO-K1 cells are transfected with human mAChR M4. In a still further aspect, the mAChR M4-transfected CHO-K1 cells are transfected with rat mAChR M4.
Substituted 3-aminothieno[2,3-c]pyridine-2-carboxamide analogs were synthesized as described above. Activity (EC50 and Emax) was determined in the mAChR M4 cell-based functional assay as described above, and the data are shown in Table II for assays conducted using mAChR hM4 cell-line. The compound number corresponds to the compound numbers used in Table I.

| Structure (SMILES) | Emax at 30 µM (% ACh maximum at 30 μM) [%] | EC50 [nM] | Emax (%) (% ACh maximum at 30 μM) |
| --- | --- | --- | --- |
| CCc1c(C(=O)NCc2ccc(S(C)(=O)=O)cc2)sc2nc(C)cc(C)c12 [Compound 38, 3-ethyl-4,6-dimethyl-N-(4-(methylsulfonyl)benzyl)thieno[2,3-b]pyridine-2-carboxamide] | 67 | 4100 | – |
| Cc1nc2sc(C(=O)NCc3ccc4c(c3)OCCO4)c(Br)c2c(C)c1Cl [Compound 39, 3-bromo-5-chloro-N-((2,3-dihydrobenzo[b][1,4]dioxin-6-yl)methyl)-4,6-dimethylthieno[2,3-b]pyridine-2-carboxamide] | – | > 10000 | – |
| COc1ccc(C(C)NC(=O)c2sc3nc(C)c(Cl)c(C)c3c2Br)cc1 (stereo not shown) [Compound 40, 3-bromo-5-chloro-N-(1-(4-methoxyphenyl)ethyl)-4,6-dimethylthieno[2,3-b]pyridine-2-carboxamide] | – | > 10000 | – |
| COc1ccc(CN(C)C(=O)c2sc3nc(C)c(Cl)c(C)c3c2Br)cc1 [Compound 43, 3-bromo-5-chloro-N-(4-methoxybenzyl)-N,4,6-trimethylthieno[2,3-b]pyridine-2-carboxamide] | – | > 10000 | – |
| Cc1nc2sc(C(=O)NCc3ccc(S(C)(=O)=O)cc3)c(Br)c2c(C)c1Cl [Compound 45, 3-bromo-5-chloro-4,6-dimethyl-N-(4-(methylsulfonyl)benzyl)thieno[2,3-b]pyridine-2-carboxamide] | – | > 10000 | – |
| Cc1nc2sc(C(=O)NCc3ccc4c(c3)CCO4)c(Br)c2c(C)c1Cl [Compound 46, 3-bromo-5-chloro-N-((2,3-dihydrobenzofuran-5-yl)methyl)-4,6-dimethylthieno[2,3-b]pyridine-2-carboxamide] | – | > 10000 | – |
| COc1ccc(CNC(=O)c2sc3nc(C)c(Cl)c(C)c3c2Br)cc1 [Compound 47, 3-bromo-5-chloro-N-(4-methoxybenzyl)-4,6-dimethylthieno[2,3-b]pyridine-2-carboxamide] | – | > 10000 | – |
| Cc1nc2sc(C(=O)NC3(C)COC3)c(Br)c2c(C)c1Cl [Compound 48, 3-bromo-5-chloro-4,6-dimethyl-N-(3-methyloxetan-3-yl)thieno[2,3-b]pyridine-2-carboxamide] | 54 | 570 | – |
| Cc1nc2sc(C(=O)NC3CCS(=O)(=O)C3)c(C)c2c(C)c1Cl (stereo not shown) [Compound 59, 5-chloro-N-(1,1-dioxidotetrahydrothiophen-3-yl)-3,4,6-trimethylthieno[2,3-b]pyridine-2-carboxamide] | 45 | 950 | – |
| Cc1nc2sc(C(=O)NC3COC3)c(-c3ccccc3)c2c(C)c1Cl [Compound 62, 5-chloro-4,6-dimethyl-N-(oxetan-3-yl)-3-phenylthieno[2,3-b]pyridine-2-carboxamide] | – | > 10000 | – |
| Cc1nc2sc(C(=O)N3CCC(c4ccccc4)C3)c(C3CC3)c2c(C)c1Cl (stereo not shown) [Compound 64, (5-chloro-3-cyclopropyl-4,6-dimethylthieno[2,3-b]pyridin-2-yl)(3-phenylpyrrolidin-1-yl)methanone] | – | > 10000 | – |
| COc1ccc(CNC(=O)c2sc3nc(C)cc(C)c3c2-c2cnn(C)c2)cc1F [Compound 66, N-(3-fluoro-4-methoxybenzyl)-4,6-dimethyl-3-(1-methyl-1H-pyrazol-4-yl)thieno[2,3-b]pyridine-2-carboxamide] | – | > 10000 | – |
| Cc1cc(C)c2c(-c3cnn(C)c3)c(C(=O)N3CCC(c4ccccc4)C3)sc2n1 (stereo not shown) [Compound 67, (4,6-dimethyl-3-(1-methyl-1H-pyrazol-4-yl)thieno[2,3-b]pyridin-2-yl)(3-phenylpyrrolidin-1-yl)methanone] | – | > 10000 | – |
| COc1ccc(C2CC2NC(=O)c2sc3nc(C)cc(C)c3c2-c2cnn(C)c2)cc1 (stereo not shown) [Compound 68, N-(2-(4-methoxyphenyl)cyclopropyl)-4,6-dimethyl-3-(1-methyl-1H-pyrazol-4-yl)thieno[2,3-b]pyridine-2-carboxamide] | – | > 10000 | – |

The next lines start with the values.

| Emax at 30 µM (% ACh maximum at 30 μM) [%] | EC50 [nM] | Emax (%) (% ACh maximum at 30 μM) | Structure (SMILES) |
| --- | --- | --- | --- |
| 84 | 530 | – | Cc1nc2sc(C(=O)NC3COC3)c(Br)c2c(C)c1Cl [Compound 41, 3-bromo-5-chloro-4,6-dimethyl-N-(oxetan-3-yl)thieno[2,3-b]pyridine-2-carboxamide] |
| – | > 10000 | – | Cc1nc2sc(C(=O)NCC3CC3)c(Br)c2c(C)c1Cl [Compound 42, 3-bromo-5-chloro-N-(cyclopropylmethyl)-4,6-dimethylthieno[2,3-b]pyridine-2-carboxamide] |
| 54 | 590 | – | Cc1nc2sc(C(=O)NC3CCOC3)c(Br)c2c(C)c1Cl (stereo not shown) [Compound 44, 3-bromo-5-chloro-4,6-dimethyl-N-(tetrahydrofuran-3-yl)thieno[2,3-b]pyridine-2-carboxamide] |
| 62 | 770 | – | Cc1nc2sc(C(=O)NC3CC3)c(Br)c2c(C)c1Cl [Compound 49, 3-bromo-5-chloro-N-cyclopropyl-4,6-dimethylthieno[2,3-b]pyridine-2-carboxamide] |
| 43 | > 10000 | – | Cc1nc2sc(C(=O)NCC(C)(C)O)c(C3CC3)c2c(C)c1Cl [Compound 50, 5-chloro-3-cyclopropyl-N-(2-hydroxy-2-methylpropyl)-4,6-dimethylthieno[2,3-b]pyridine-2-carboxamide] |
| – | > 10000 | – | Cc1nc2sc(C(=O)NC3CCS(=O)(=O)C3)c(C3CC3)c2c(C)c1Cl (stereo not shown) [Compound 51, 5-chloro-3-cyclopropyl-N-(1,1-dioxidotetrahydrothiophen-3-yl)-4,6-dimethylthieno[2,3-b]pyridine-2-carboxamide] |
| 60 | 1600 | – | Cc1nc2sc(C(=O)NC3CCOC3)c(C3CC3)c2c(C)c1Cl (stereo not shown) [Compound 52, 5-chloro-3-cyclopropyl-4,6-dimethyl-N-(tetrahydrofuran-3-yl)thieno[2,3-b]pyridine-2-carboxamide] |
| – | > 10000 | – | COc1ccc(CNC(=O)c2sc3nc(C)c(Cl)c(C)c3c2C2CC2)cc1 [Compound 53, 5-chloro-3-cyclopropyl-N-(4-methoxybenzyl)-4,6-dimethylthieno[2,3-b]pyridine-2-carboxamide] |
| 50 | 430 | – | Cc1nc2sc(C(=O)NC3CC3)c(C3CC3)c2c(C)c1Cl [Compound 54, 5-chloro-N,3-dicyclopropyl-4,6-dimethylthieno[2,3-b]pyridine-2-carboxamide] |
| 85 | 860 | – | Cc1nc2sc(C(=O)NC3COC3)c(C3CC3)c2c(C)c1Cl [Compound 55, 5-chloro-3-cyclopropyl-4,6-dimethyl-N-(oxetan-3-yl)thieno[2,3-b]pyridine-2-carboxamide] |
| 38 | 1400 | – | Cc1nc2sc(C(=O)NC3(C)COC3)c(C3CC3)c2c(C)c1Cl [Compound 56, 5-chloro-3-cyclopropyl-4,6-dimethyl-N-(3-methyloxetan-3-yl)thieno[2,3-b]pyridine-2-carboxamide] |
| 79 | 1200 | – | Cc1nc2sc(C(=O)NC3CCOC3)c(C)c2c(C)c1Cl (stereo not shown) [Compound 57, 5-chloro-3,4,6-trimethyl-N-(tetrahydrofuran-3-yl)thieno[2,3-b]pyridine-2-carboxamide] |
| – | > 10000 | – | Cc1nc2sc(C(=O)NC3CCN(C)CC3)c(C)c2c(C)c1Cl [Compound 58, 5-chloro-3,4,6-trimethyl-N-(1-methylpiperidin-4-yl)thieno[2,3-b]pyridine-2-carboxamide] |
| 79 | 380 | – | Cc1nc2sc(C(=O)NC3CC3)c(C)c2c(C)c1Cl [Compound 60, 5-chloro-N-cyclopropyl-3,4,6-trimethylthieno[2,3-b]pyridine-2-carboxamide] |
| – | 360 | 70 | Cc1nc2sc(C(=O)NC3COC3)c(Br)c2c(C)c1Cl [Compound 61, 3-bromo-5-chloro-4,6-dimethyl-N-(oxetan-3-yl)thieno[2,3-b]pyridine-2-carboxamide] |
| 76 | 410 | – | Cc1nc2sc(C(=O)NC3COC3)c(C)c2c(C)c1Cl [Compound 63, 5-chloro-3,4,6-trimethyl-N-(oxetan-3-yl)thieno[2,3-b]pyridine-2-carboxamide] |
| – | > 10000 | – | COc1ccc(C2CC2NC(=O)c2sc3nc(C)c(Cl)c(C)c3c2C2CC2)cc1 (stereo not shown) [Compound 65, 5-chloro-3-cyclopropyl-N-(2-(4-methoxyphenyl)cyclopropyl)-4,6-dimethylthieno[2,3-b]pyridine-2-carboxamide] |

Reference: patent publication US20160200733A1, “SUBSTITUTED THIENO[2,3-B]PYRIDINE-2-CARBOXAMIDE ANALOGS AS POSITIVE ALLOSTERIC MODULATORS OF THE MUSCARINIC ACETYLCHOLINE RECEPTOR M4” (Vanderbilt University, priority 2013, published 2016)
